Test results taken from paper PMC12189828, “Substitution of Proline Residues by 4-Fluoro-L-Proline Affects the Mechanism of the Proline-Rich Antimicrobial Peptide Api137” (Antibiotics, 2025).
Where a SMILES comes first, the peptide text is derived from it. [ ]: non-standard residue; d: D form. The star is where a group is joined. Orn(α-tetramethylguanidino) = CN(C)C(=N[C@@H](CCCN)C(=O)*)N(C)C; Pro(trans-4-F) = O=C(O)[C@@H]1C[C@@H](F)CN1; Pro(cis-4-F) = O=C(O)[C@@H]1C[C@H](F)CN1

What was measured:
[1] = system: 50S subunit assembly / 70S ribosome in E. coli RN31; assay: Ribosome profile analysis (RPA), sucrose gradient of E. coli RN31 lysate; format: cell-based, Escherichia coli; conditions: 90 min; for RPA [pre-50S formation]: E. coli RN31, 33% TSB, peptide 8 µg/mL, 5–25% sucrose gradient, n = 2 (Api137 n = 7)
Protocol: E. coli RN31 was grown in 33% TSB (37 °C, 200 rpm) from a starting OD600 of 0.05 to an OD600 of 0.2, measured on a NanoPhotometer® (NP80; Implen; Westlake Village, CA, USA), and divided into subcultures that were inoculated with a peptide ([…]) before being cultured for 90 min (37 °C, 200 rpm). The following steps were performed on ice. Cells were harvested by centrifugation (4000× g, 4 °C, 25 min), washed with TICO buffer (20 mmol/L Hepes-KOH, pH 7.6, 6 mmol/L MgAc2, 30 mmol/L KAc), centrifuged (4000× g, 25 min, 4 °C), and stored at −80 °C. The cell pellet was suspended in TICO buffer (500 µL) and mixed with silica beads (zirconium glass pellets, 100 µm diameter; Carl Roth; Karlsruhe, Germany) to lyse the cells on a FastPrep-24^TM 5G (MP Biomedicals, Solon, OH, USA) using three disruption cycles (30 s, 6.0 m/s) interrupted by 1 min of incubation on ice after each cycle. Cell debris was removed by centrifugation (5000× g, 4 °C, 5 min), the supernatant was transferred to a new reaction tube, centrifuged (20,000× g, 4 °C, 20 min), the absorbance was recorded at 260 nm on a NanoPhotometer® NP80, and the sample was stored at −80 °C.
A 5% (w/v) sucrose solution (6.5 mL) in TICO buffer containing 2-mercaptoethanol (4 mmol/L) was poured into an open-top centrifuge tube (13.2 mL, 14 × 89 mm, Beckman Coulter) and bottomed with a 25% (w/v) sucrose solution (6.5 mL) in TICO buffer containing 2-mercaptoethanol (4 mmol/L) using a cannula. The tube was sealed with parafilm and placed horizontally at 4 °C for 3 h and vertically at 4 °C for 30 min. A portion of the upper layer (550 µL) was replaced by lysate (500 µL, A260 = 30) and centrifuged using a swing-out rotor (SW 41 Ti, 52,500× g, 4 °C, 19 h) without a brake. The contents were transferred from bottom-up to obtain equal volumes in all wells of a black 96-well plate with a flat bottom (96 Well PP black Greiner Bio-One GmbH, Frickenhausen, Germany) using the Äkta Purifier 10 system, and absorbance was recorded at a wavelength of 254 nm. Fluorescence was measured in the plate using the PARADIGM at excitation (λex) and emission (λem) wavelengths of 485 nm and 535 nm for eGFP and 585 nm and 635 nm, respectively, for mCherry and normalized to the 70S ribosome peak (set to 100%).

[2] = system: in vitro expression of sfGFP in the presence of RF1; assay: In vitro transcription-translation (iTT) assay of sfGFP in the presence of RF1; format: biochemical; conditions: peptide 5 µmol/L, RF1, 37 °C, 2 h, fluorescence, normalized to absence of PrAMPs, n = 3
Protocol: The sfGFP expression analysis relied on the NEB PureExpress Delta RF123 Kit (New England Biolabs, Frankfurt, Germany). The DNA template encoding sfGFP with a UAG stop codon was amplified from the pY71sfGFP vector by PCR using the primers sfGFP fwd ([…]) and sfGFP rev ([…]). The release factor RF1 of the kit was diluted 50-fold (v/v) in 1× Pure System Buffer (PSB, 1 mol/L magnesium acetate, 0.5 mol/L K3PO4 (pH 7.3), 1 mol/L potassium glutamate, 1 mol/L NH4Cl, 0.5 mol/L CaCl2, 1 mol/L spermidine, 0.1 mol/L putrescine, 0.1 mol/L DTT). sfGFP expression was performed in a freshly prepared mixture of kit solution A (2 µL), kit solution B (1.5 µL), 50-fold diluted RF1 (0.5 µL), sfGFP template (0.1325 pmol, 35 ng) or water as control (0.25 µL), PSB (0.25 µL), and a PrAMP (50 or 0 µmol/L) dissolved in water (0.5 µL). The reaction mixture was transferred to a black 384-well plate (flat bottom, PS, 784900, Greiner Bio-One GmbH), covered with a lid, and incubated (37 °C, 2 h) in a microplate reader (Gemini EM, Molecular Devices, San Jose, CA, USA). Fluorescence was recorded every 10 min (λex = 485 nm, λem = 535 nm).

E. coli RN31 = assay: Growth inhibition of E. coli RN31 during 90 min exponential growth phase; format: cell-based, Escherichia coli; conditions: for reduction of bacterial growth vs untreated control: E. coli RN31, 33% TSB, peptide 8 µg/mL, OD600, two biological replicates (n = 2)
Protocol: The following steps were performed on ice. Cells were harvested by centrifugation (4000× g, 4 °C, 25 min), washed with TICO buffer (20 mmol/L Hepes-KOH, pH 7.6, 6 mmol/L MgAc2, 30 mmol/L KAc), centrifuged (4000× g, 25 min, 4 °C), and stored at −80 °C. The cell pellet was suspended in TICO buffer (500 µL) and mixed with silica beads (zirconium glass pellets, 100 µm diameter; Carl Roth; Karlsruhe, Germany) to lyse the cells on a FastPrep-24^TM 5G (MP Biomedicals, Solon, OH, USA) using three disruption cycles (30 s, 6.0 m/s) interrupted by 1 min of incubation on ice after each cycle. Cell debris was removed by centrifugation (5000× g, 4 °C, 5 min), the supernatant was transferred to a new reaction tube, centrifuged (20,000× g, 4 °C, 20 min), the absorbance was recorded at 260 nm on a NanoPhotometer® NP80, and the sample was stored at −80 °C. […]

With `CC[C@H](C)[C@H](NC(=O)[C@H](Cc1ccc(O)cc1)NC(=O)[C@@H](NC(=O)[C@@H]1CCCN1C(=O)[C@H](CCCNC(=N)N)NC(=O)[C@H](CC(N)=O)NC(=O)[C@H](CC(N)=O)NC(=O)[C@H](CCCN)N=C(N(C)C)N(C)C)C(C)C)C(=O)N1C[C@@H](F)C[C@H]1C(=O)N[C@@H](CCCNC(=N)N)C(=O)N1CCC[C@H]1C(=O)N[C@@H](CCCNC(=N)N)C(=O)N1CCC[C@H]1C(=O)N1CCC[C@H]1C(=O)N[C@@H](Cc1c[nH]cn1)C(=O)N1CCC[C@H]1C(=O)N[C@@H](CCCNC(=N)N)C(=O)N[C@@H](CC(C)C)C(=O)O` [Api845] ({Orn(α-tetramethylguanidino)}-NNRPVYI[Pro(cis-4-F)]RPRPPHPRL-OH) the “RPA [pre-50S formation]” value [1] was “yes”, the “Residual iTT (sfGFP expression relative to no PrAMP)” value [2] was 26 ± 5.7% and the “reduction of bacterial growth vs untreated control” value (shortened to “reduction of bacterial growth”) (E. coli RN31; 90 min) was 62%.

With `CC[C@H](C)[C@H](NC(=O)[C@H](Cc1ccc(O)cc1)NC(=O)[C@@H](NC(=O)[C@@H]1CCCN1C(=O)[C@H](CCCNC(=N)N)NC(=O)[C@H](CC(N)=O)NC(=O)[C@H](CC(N)=O)NC(=O)[C@H](CCCN)N=C(N(C)C)N(C)C)C(C)C)C(=O)N1CCC[C@H]1C(=O)N[C@@H](CCCNC(=N)N)C(=O)N1CCC[C@H]1C(=O)N[C@@H](CCCNC(=N)N)C(=O)N1C[C@@H](F)C[C@H]1C(=O)N1CCC[C@H]1C(=O)N[C@@H](Cc1c[nH]cn1)C(=O)N1CCC[C@H]1C(=O)N[C@@H](CCCNC(=N)N)C(=O)N[C@@H](CC(C)C)C(=O)O` [Api843] ({Orn(α-tetramethylguanidino)}-NNRPVYIPRPR[Pro(cis-4-F)]PHPRL-OH) the “RPA [pre-50S formation]” value [1] was “yes”, the “Residual iTT (sfGFP expression relative to no PrAMP)” value [2] was 28 ± 3.2% and the “reduction of bacterial growth” value (E. coli RN31; 90 min) was 56%.

With `CC[C@H](C)[C@H](NC(=O)[C@H](Cc1ccc(O)cc1)NC(=O)[C@@H](NC(=O)[C@@H]1CCCN1C(=O)[C@H](CCCNC(=N)N)NC(=O)[C@H](CC(N)=O)NC(=O)[C@H](CC(N)=O)NC(=O)[C@H](CCCN)N=C(N(C)C)N(C)C)C(C)C)C(=O)N1CCC[C@H]1C(=O)N[C@@H](CCCNC(=N)N)C(=O)N1CCC[C@H]1C(=O)N[C@@H](CCCNC(=N)N)C(=O)N1CCC[C@H]1C(=O)N1CCC[C@H]1C(=O)N[C@@H](Cc1c[nH]cn1)C(=O)N1C[C@H](F)C[C@H]1C(=O)N[C@@H](CCCNC(=N)N)C(=O)N[C@@H](CC(C)C)C(=O)O` [Api850] ({Orn(α-tetramethylguanidino)}-NNRPVYIPRPRPPH[Pro(trans-4-F)]RL-OH) the “RPA [pre-50S formation]” value [1] was “yes”, the “ribosomal profile, pre-50S peak” value ([1]; E. coli RN31, adjusted peptide concentration 4 µg/mL) was “reduced the area of the pre-50S peak” and the “Residual iTT (sfGFP expression relative to no PrAMP)” value ([2]; listed as 4R-Fpr16) was 28%. The “Residual iTT (sfGFP expression relative to no PrAMP)” value ([2]; listed as Pro16 4R-Fpr (trans)) was 28 ± 0.7%, the “reduction of bacterial growth” value (E. coli RN31; 90 min) was 84% and the “OD600 of treated culture after 90 min” value (E. coli RN31; E. coli RN31, peptide 8 µg/mL, 90 min, initial OD600 = 0.226 ± 0.006 at 0 min) was 0.333 ± 0.002. The “cell count relative to the initial cell count” value (E. coli RN31; E. coli RN31, peptide 8 µg/mL, 90 min vs 0 min (OD600)) was ~ 140%.

In the case of `CC[C@H](C)[C@H](NC(=O)[C@H](Cc1ccc(O)cc1)NC(=O)[C@@H](NC(=O)[C@@H]1CCCN1C(=O)[C@H](CCCNC(=N)N)NC(=O)[C@H](CC(N)=O)NC(=O)[C@H](CC(N)=O)NC(=O)[C@H](CCCN)N=C(N(C)C)N(C)C)C(C)C)C(=O)N1CCC[C@H]1C(=O)N[C@@H](CCCNC(=N)N)C(=O)N1CCC[C@H]1C(=O)N[C@@H](CCCNC(=N)N)C(=O)N1CCC[C@H]1C(=O)N1CCC[C@H]1C(=O)N[C@@H](Cc1c[nH]cn1)C(=O)N1C[C@@H](F)C[C@H]1C(=O)N[C@@H](CCCNC(=N)N)C(=O)N[C@@H](CC(C)C)C(=O)O` [Api849] ({Orn(α-tetramethylguanidino)}-NNRPVYIPRPRPPH[Pro(cis-4-F)]RL-OH), the “RPA [pre-50S formation]” value [1] is reported as “no”, the “Residual iTT (sfGFP expression relative to no PrAMP)” value ([2]; listed as 4S-Fpr16) is reported as 63% and the “Residual iTT (sfGFP expression relative to no PrAMP)” value ([2]; listed as Pro16 4S-Fpr (cis)) is reported as 63 ± 8.9%. For the same compound, the “reduction of bacterial growth” value (E. coli RN31; 90 min) was 16%.

In the case of `CC[C@H](C)[C@H](NC(=O)[C@H](Cc1ccc(O)cc1)NC(=O)[C@@H](NC(=O)[C@@H]1CCCN1C(=O)[C@H](CCCNC(=N)N)NC(=O)[C@H](CC(N)=O)NC(=O)[C@H](CC(N)=O)NC(=O)[C@H](CCCN)N=C(N(C)C)N(C)C)C(C)C)C(=O)N1CCC[C@H]1C(=O)N[C@@H](CCCNC(=N)N)C(=O)N1C[C@H](F)C[C@H]1C(=O)N[C@@H](CCCNC(=N)N)C(=O)N1CCC[C@H]1C(=O)N1CCC[C@H]1C(=O)N[C@@H](Cc1c[nH]cn1)C(=O)N1CCC[C@H]1C(=O)N[C@@H](CCCNC(=N)N)C(=O)N[C@@H](CC(C)C)C(=O)O` [Api842] ({Orn(α-tetramethylguanidino)}-NNRPVYIPR[Pro(trans-4-F)]RPPHPRL-OH), the “RPA [pre-50S formation]” value [1] is reported as “reduced”, the “Residual iTT (sfGFP expression relative to no PrAMP)” value [2] is reported as 31 ± 0.7% and the “reduction of bacterial growth” value (E. coli RN31; 90 min) is reported as 49%.
